We go through 59 compounds from ChEMBL document CHEMBL1201862, “PubChem BioAssay data set” (2004).

“And” between values parts separate entries of the source, which are not always exact repeats. Identical values can stand only once. The source made the active and inactive calls.

For data set [1], the target named is T1, Heat shock factor protein 1 (Mus musculus, UniProt P38532).
T1 sequence (P38532 whole entry): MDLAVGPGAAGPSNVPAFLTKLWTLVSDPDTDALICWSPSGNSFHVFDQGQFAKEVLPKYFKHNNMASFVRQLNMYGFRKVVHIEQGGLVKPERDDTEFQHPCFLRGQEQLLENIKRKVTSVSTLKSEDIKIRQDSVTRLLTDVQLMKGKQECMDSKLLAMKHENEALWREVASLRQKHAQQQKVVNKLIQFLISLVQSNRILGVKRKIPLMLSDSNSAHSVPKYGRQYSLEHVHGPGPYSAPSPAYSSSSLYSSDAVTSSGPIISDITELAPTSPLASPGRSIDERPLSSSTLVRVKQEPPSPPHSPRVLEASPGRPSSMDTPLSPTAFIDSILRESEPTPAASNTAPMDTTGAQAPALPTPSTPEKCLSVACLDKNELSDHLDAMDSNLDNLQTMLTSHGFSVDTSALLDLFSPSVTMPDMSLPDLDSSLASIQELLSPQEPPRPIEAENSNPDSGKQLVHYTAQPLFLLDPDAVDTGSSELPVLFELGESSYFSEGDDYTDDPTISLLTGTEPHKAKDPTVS
The experiment in a line: inhibition of MG132-induced HSE-luciferase signal, confirmation, cell-based, NIH3T3, luminescence, dose retest (AID 2382).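 Further: NIH3T3 fibroblasts with HSF1-driven luciferase reporter stressed by proteasome inhibitor MG132; luminescence from HSF1-driven luciferase expression after 8 hours of MG132 stress.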 It counts as functional.

A further data set deals with Cytochrome P450 2D6 (Homo sapiens, UniProt P10635).
A further data set concerns the target Cytochrome P450 2C19 (Homo sapiens, UniProt P33261). In words: Cytochrome panel assay with activity outcomes. Panel member name: p450-cyp2c19 Compounds with AC50 equal or less than 10 uM are considered active. It is filed as functional.
In another data set the target is Cytochrome P450 2C9 (Homo sapiens, UniProt P11712).
Data set [2] in a line: inhibitors of intracellular T. cruzi replication, confirmation, NIH3T3 host cells, beta-gal luminescence (AID 2044).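 Further: intracellular parasites grown in NIH/3T3 mouse fibroblasts as host cells; luminescent beta-galactosidase reporter signal from transgenic T. cruzi replicating inside host cells; inhibitors lower the luminescence signal.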 It is filed as functional, cell-based.
Data set [3] can be described thus: cytotoxicity toward NIH3T3 fibroblasts, dose response, counter-screen, cell-based, ATP luminescence, mouse fibroblasts (AID 2010).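 Further: cells exposed to compound for about 90 hours before reading.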 It counts as functional.
Data set [4] has as its system Streptococcus sp. 'group A'. In words: growth inhibition of control SK(-) GAS strain, dose response, counter-screen for streptokinase expression inhibitor project, luminescence, kanamycin, BacTiterGlo, confirmation (AID 1900). It counts as functional, organism-based.
For the next data set, the system named is Streptococcus. In words: Group A Streptococcus viability loss, dose response, counter-screen for streptokinase expression inhibitor project, luminescence, BacTiterGlo (AID 1915).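 Further: potency for reduction of bacterial viability or growth.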 It counts as functional, organism-based.

Chain of Cytochrome P450 2D6 (P10635 whole entry): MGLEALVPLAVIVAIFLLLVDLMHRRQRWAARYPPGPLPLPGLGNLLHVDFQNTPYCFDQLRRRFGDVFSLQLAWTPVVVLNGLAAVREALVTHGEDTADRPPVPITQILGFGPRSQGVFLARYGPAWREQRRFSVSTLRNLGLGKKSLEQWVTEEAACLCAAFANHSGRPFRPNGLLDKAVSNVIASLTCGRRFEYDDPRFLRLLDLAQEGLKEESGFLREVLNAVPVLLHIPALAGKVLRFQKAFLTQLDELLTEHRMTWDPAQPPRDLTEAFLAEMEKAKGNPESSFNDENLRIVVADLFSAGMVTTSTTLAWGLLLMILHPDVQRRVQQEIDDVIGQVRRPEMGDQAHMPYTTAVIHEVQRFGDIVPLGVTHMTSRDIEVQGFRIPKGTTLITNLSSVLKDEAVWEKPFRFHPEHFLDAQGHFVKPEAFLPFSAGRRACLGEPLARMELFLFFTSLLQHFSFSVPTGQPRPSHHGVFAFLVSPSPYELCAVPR
Chain of Cytochrome P450 2C9 (P11712 whole entry): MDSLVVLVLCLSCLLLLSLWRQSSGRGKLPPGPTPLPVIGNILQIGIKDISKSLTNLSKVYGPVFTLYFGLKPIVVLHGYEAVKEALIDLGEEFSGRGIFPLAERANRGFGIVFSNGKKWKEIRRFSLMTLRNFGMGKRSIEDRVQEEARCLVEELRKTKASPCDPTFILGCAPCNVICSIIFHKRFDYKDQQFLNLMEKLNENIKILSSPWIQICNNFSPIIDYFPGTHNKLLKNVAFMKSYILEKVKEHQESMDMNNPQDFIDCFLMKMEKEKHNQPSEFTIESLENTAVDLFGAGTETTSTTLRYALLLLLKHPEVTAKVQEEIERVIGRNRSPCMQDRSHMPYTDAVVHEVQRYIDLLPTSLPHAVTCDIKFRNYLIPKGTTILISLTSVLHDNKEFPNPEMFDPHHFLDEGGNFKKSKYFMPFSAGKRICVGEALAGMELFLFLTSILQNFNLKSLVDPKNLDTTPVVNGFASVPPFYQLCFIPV
Chain of Cytochrome P450 2C19 (P33261 whole entry): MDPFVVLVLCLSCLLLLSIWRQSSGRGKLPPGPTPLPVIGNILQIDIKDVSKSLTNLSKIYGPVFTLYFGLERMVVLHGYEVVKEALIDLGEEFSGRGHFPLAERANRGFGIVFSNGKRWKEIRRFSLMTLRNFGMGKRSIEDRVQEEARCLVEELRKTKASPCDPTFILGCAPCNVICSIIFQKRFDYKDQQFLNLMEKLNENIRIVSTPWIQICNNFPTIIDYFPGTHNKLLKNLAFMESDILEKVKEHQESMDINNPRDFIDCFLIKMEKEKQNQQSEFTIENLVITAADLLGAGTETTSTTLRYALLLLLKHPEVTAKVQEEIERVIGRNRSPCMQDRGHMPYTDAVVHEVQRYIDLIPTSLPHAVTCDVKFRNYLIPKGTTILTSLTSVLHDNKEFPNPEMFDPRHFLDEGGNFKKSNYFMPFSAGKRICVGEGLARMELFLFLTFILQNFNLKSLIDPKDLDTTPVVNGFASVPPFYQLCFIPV

As for `C=CCN1C(=O)C(Cc2ccc(OC)cc2)S/C1=N/N=C/c1ccco1` (centres undefined), in data set [1], the 50% effective concentration (EC50) is > 195 µM (not active).
Turning to `Cc1cc(N2CCOCC2)nc(SCc2ccc(Cl)cc2Cl)n1`, on Cytochrome P450 2D6, the AC50 is 15.8 µM (inconclusive).
With `CN1C(=O)CC(NNC(=O)c2ccccc2)C1=O` (centres undefined), on Cytochrome P450 2C19, the AC50 entry was “inconclusive”.
On to `Cc1nn(-c2ccccc2)c2c1C(=O)N(Cc1ccccc1)C(=O)C(C)(C)C2`, for which the AC50 on Cytochrome P450 2D6 was 0.891 µM (inconclusive).
Turning to `CCCCN(C(=O)COc1ccc(C)cc1OC)c1c(N)n(CCC)c(=O)[nH]c1=O`, the EC50 in data set [1] is given as > 195 µM (not active).
On the same count and under the same terms, the value for `CN(CC(=O)NCc1cccnc1)S(=O)(=O)c1ccc2c(c1)c(=O)n(C)c(=O)n2C` was > 195 µM (not active).
Regarding `Cc1cc(C(F)(F)F)n2nc(-c3cnn(C)c3C(F)(F)F)c(Cl)c2n1`, the AC50 at Cytochrome P450 2C9 was 20 µM (inconclusive).
`C[N+]12CCC(CC1)[C@@H](OC(=O)C(O)(c1ccccc1)c1ccccc1)C2`: the concentration at half-maximal activity (AC50) at Cytochrome P450 2D6 is 12.6 µM (inconclusive).
Regarding `Cc1c2c(n3c(nc4ccccc43)c1C#N)N(CCN(C)C)CC2`, the results for the EC50 in data set [2] and in data set [3] were 117 nM (active) and 20.6 µM (active), respectively.
As for `CC1(C)Cc2nc3[nH]c(=S)n(-c4ccccc4)c(=O)c3cc2CO1`, the EC50 in data set [1] is recorded as > 195 µM (not active).
For the compound `Cc1ccc(OCC(O)CN2C(=O)NC(C)(C)C2=O)cc1C` (centres undefined), the EC50 in data set [1] is > 195 µM (not active).
As for `Cc1ccc(N(Cc2ccco2)C(=O)c2ccc(N3CCCCC3)c([N+](=O)[O-])c2)cc1`, the results for the EC50 in data set [2] and in data set [3] were 1270 nM (active) and > 60 µM (not active), respectively.
Take `Cc1ccc(C)c(NC(=O)C2C3CCCC2C3c2ccccc2)c1` (centres undefined): the AC50 on Cytochrome P450 2C9 is 3.16 µM (inconclusive).
As for `Cc1ccc(/C=C/C(=O)Nc2ccc(O)c3c(=O)cc(-c4ccccc4Cl)oc23)cc1`, in data set [1], the 50% effective concentration (EC50) is > 195 µM (not active).
Consider `COc1ccc(-n2c(-c3ccc(F)cc3)cnc2SCC(=O)NCc2ccco2)cc1`, for which, in data set [1], the EC50 is on record as > 195 µM (not active).
As to `O=C(c1cnccn1)N1CCC2(CC1)CN(Cc1ccccc1)C2`, the AC50 on Cytochrome P450 2C19 (read-out: AC50) is 15.8 µM (inconclusive); at Cytochrome P450 2C9, 31.6 µM (inconclusive).
Regarding `N=C(N)N/N=C/c1cccc(Cl)c1Cl`, the EC50 in data set [2] is 435 nM (active); in data set [3], > 60 µM (not active).
With `Clc1ccc(SCCN2CCNCC2)cc1`, the EC50 was 511 nM (active) in data set [2] and 9.8 µM (active) in data set [3].
`Cc1c(Cl)c([N+](=O)[O-])nn1CC(=O)Nc1c(C)n(C)n(-c2ccccc2)c1=O`: the AC50 at Cytochrome P450 2C19 (read-out: AC50) is 1.78 µM (inconclusive); at Cytochrome P450 2C9 it was 14.1 µM (inconclusive).
For `CCC(C)c1ccc(NC(=O)C2CC2)cc1` (centres undefined), the concentration giving a half-maximal response (EC50) in data set [1] is listed as > 195 µM (not active).
Take `Cc1cc(C)cc(NC(=O)N2CCCC2C(=O)Nc2ccc(-n3cnnn3)c(C)c2)c1` (centres undefined): the AC50 at Cytochrome P450 2C9 was 20 µM (inconclusive).
For `O=[N+]([O-])c1cccc(/C=N\Nc2ccc3ccccc3n2)c1O`, the AC50 was 6.31 µM (inconclusive) at Cytochrome P450 2C19 (read-out: AC50) and 1 µM (inconclusive) at Cytochrome P450 2C9.
For `COC(=O)c1cc(NC(=O)/C=C/c2ccc3c(c2)OCO3)cc(C(=O)OC)c1`, at Cytochrome P450 2C9, the AC50 was 0.126 µM (inconclusive).
As to `O=[N+]([O-])c1nn(-c2ccccc2)[n+]([O-])c1N1CCN(c2ccccc2)CC1`, the values for the EC50 in data set [2] and in data set [3] were 483 nM (active) and > 60 µM (not active), respectively.
In the case of `COc1ccccc1CNc1ccnc(-c2ccccc2C(F)(F)F)n1`, the AC50 at Cytochrome P450 2C9 was 0.0158 µM (inconclusive).
Consider `Nc1ccccc1Nc1cc(-c2ccccc2)nn1-c1ccccc1`, for which the EC50 is 7720 nM (active) in data set [2] and > 60 µM (inconclusive) in data set [3].
As to `COc1cccc(-c2ccc3ncnc(NCc4cnc(C)cn4)c3c2)c1`, the AC50 at Cytochrome P450 2D6 was 31.6 µM (inconclusive).
For the compound `CSc1nc(C)c(CCOC(=O)c2ccccc2)c(O)n1`, at Cytochrome P450 2C9, the AC50 is 20 µM (inconclusive).
In the case of `CCOc1ccc(-c2cc(C(=O)OC)nc3c2c(=O)n(C)c(=O)n3C)cc1`, the EC50 in data set [4] was 63 nM (active); in the data set on Streptococcus it was 4.33 µM (active).
As for `CC(=O)N1CCC2(CC1)CCN(c1ccc(-c3ccccc3)cc1)CC2`, the AC50 on Cytochrome P450 2C9 was 25.1 µM (inconclusive).
On to `Cc1cccc(C)c1OC[C@H](C)N` [(S)-MEXILETINE], for which, at Cytochrome P450 2D6, the AC50 is 7.94 µM (inconclusive) and 39.8 µM (inconclusive).
Turning to `CCOC(=O)c1cc2c(=O)n3ccccc3nc2n(C(C)C)/c1=N/C(=O)c1c(-c2ccccc2Cl)noc1C`, the EC50 in data set [2] is 2400 nM (active); in data set [3], > 30 µM (not active).
For the compound `Cc1ccccc1OCC(=O)OCC(=O)c1ccc(-c2ccccc2)cc1`, the EC50 in data set [1] is > 195 µM (not active).
Same read-out and setting: then `CCN(c1ccccc1)S(=O)(=O)c1ccc(Cl)c(C(=O)N(CC2CCCO2)C2CCS(=O)(=O)C2)c1` (centres undefined), with > 195 µM (not active); and `Cc1nn2c(=O)c(Cl)c(C)[nH]c2c1-c1ccccc1`, with > 195 µM (not active).
As for `CC(C)c1ccc(NC(=O)c2cc3c(=O)n(C)c4ccccc4c3n2C)cc1`, the concentration for a half-maximal effect (EC50) in data set [2] was 1120 nM (active); in data set [3] it was 16.2 µM (active).
On to `COc1cccc(C(=O)CC(=O)C(=O)Nc2cc(OC)c(OC)c(OC)c2)c1`, for which, in data set [1], the EC50 is > 195 µM (not active).
`O=C1N=C(N2CCOCC2)S/C1=C\C=C/c1ccccc1`: the AC50 at Cytochrome P450 2C19 (read-out: AC50) is 35.5 µM (inconclusive).
Regarding `CC(C)C(=O)N1CCN(c2cc(N3CCN(C)CC3)c(F)cc2[N+](=O)[O-])CC1`, the EC50 in data set [2] is 625 nM (active); in data set [3], > 60 µM (not active).
As for `CC1CC(OCC(O)CN2CCN(Cc3ccccc3)CC2)CC(C)(C)C1` (centres undefined), the AC50 at Cytochrome P450 2C9 is 0.0251 µM (inconclusive).
On to `CN(C)c1cc2c(Nc3ccc4c(cnn4Cc4ccccc4)c3)ncnc2cn1` [GW282974X], for which the values for the AC50 on Cytochrome P450 2C19 (read-out: AC50) and on Cytochrome P450 2D6 were 25.1 µM (inconclusive) and 31.6 µM (inconclusive), respectively.
`CCOC(=O)N1CCC(NC(=O)CS(=O)(=O)Cc2nc(-c3cccc(OC)c3)oc2C)CC1`: the AC50 on Cytochrome P450 2C19 (read-out: AC50) is 39.8 µM (inconclusive).
With `C=CC[C@@H]1C=C[C@H](O/N=C2\c3cc(OC)ccc3O[C@H](c3cccc(OC)c3)[C@H]2O)[C@H](CO)O1`, the values for the AC50 at Cytochrome P450 2C19 (read-out: AC50) and at Cytochrome P450 2D6 were 3.16 µM (inconclusive) and 5.01 µM (inconclusive), respectively.
On to `CCC(C(=O)NC(C)(C)C)N(C(=O)Cn1nnc(-c2cccs2)n1)c1cnc2ccccc2c1` (centres undefined), for which the concentration at half-maximal activity (AC50) at Cytochrome P450 2D6 is 28.2 µM (inconclusive).
`CCCNC(=O)c1c(C)cc(=O)oc1C`: the AC50 at Cytochrome P450 2C9 is 0.112 µM (inconclusive).
`CC(C)(C)OC(=O)N[C@@H](Cc1ccccc1)C(=O)NC[C@H]1CC[C@H](C(=O)N[C@@H](CC(=O)O)C(=O)O)CC1`: in data set [1], the EC50 was > 195 µM (not active).
As for `C/C(=N\Nc1nc2ccccc2[nH]1)c1ccc2c(c1)OCCO2`, the EC50 in data set [2] is 1890 nM (active); in data set [3], > 60 µM (not active).
For `Cc1cc(C)c2nc(O)c(C(c3nnnn3CC3CCCO3)N3CCC(C)CC3)cc2c1` (centres undefined), the EC50 in data set [1] is > 195 µM (not active).
For the compound `O=C(Cn1cnc2cc([N+](=O)[O-])ccc2c1=O)NC(=O)NCc1ccccc1`, the EC50 was 223 nM (active) in data set [2] and > 60 µM (not active) in data set [3].
Take `COC(=O)c1ccccc1NC(=O)C1CCN(C(=O)c2ccc(OC)cc2)CC1`: at Cytochrome P450 2C9, the AC50 is 8.91 µM (inconclusive).
In the case of `Cc1ccnc(NCn2nnc3ccccc32)c1`, the AC50 at Cytochrome P450 2C9 was 22.4 µM (inconclusive).
Regarding `Cc1noc(C)c1-c1cncnc1N1CCN(C)CC1`, the results for the AC50 result at Cytochrome P450 2C19 and at Cytochrome P450 2D6 were “inconclusive” and 39.8 µM (inconclusive), respectively.
Turning to `O=c1c2ccccc2ncn1-c1ccc([N+](=O)[O-])cc1[N+](=O)[O-]`, the EC50 in data set [2] was 524 nM (active); in data set [3] it was > 60 µM (not active).
The like results for `COc1ccc(C(=O)Nc2ccc(S(=O)(=O)N3CCCC3)cc2)c(OC)c1` were, in that order, 11100 nM (active) and > 60 µM (not active).
For `O=C(NC(=S)N(CCCCO)C1CCCCC1)c1sc2ccccc2c1Cl`, the EC50 in data set [4] was 891 nM (active); in the data set on Streptococcus, 7.75 µM (active). At Cytochrome P450 2D6, the AC50 was 22.4 µM (inconclusive).
As for `COc1ccc(CCNC(=O)c2cc3c(=O)n4ccccc4nc3n(C3CCCCC3)c2=N)cc1`, the concentration giving a half-maximal response (EC50) is 2170 nM (active) in data set [2] and > 60 µM (not active) in data set [3].
On to `FC(F)(F)c1cccc(NC(S)=NN=C(S)Nc2ccc(Cl)cc2)c1`, for which the values for the EC50 (in data set [4]; with Streptococcus) were 3280 nM (active) and 5.47 µM (active), respectively.
Consider `O=C(CS(=O)(=O)Cc1ccccc1)NCC1CCCO1` (centres undefined), for which the EC50 in data set [1] is on record as > 195 µM (not active).
Regarding `COc1ccc(CCNCC(O)COc2cccc(C(C)=O)c2)cc1OC` (centres undefined), the EC50 is 225 nM (active) in data set [2] and > 60 µM (not active) in data set [3].
